Reference: patent publication US6204293A, “Inhibitors of protein isoprenyl transferases” (University of Pittsburgh, priority 1998, dated 2001)
Structures can show the parent of a compound that is named as a salt.

What follows are compounds tested against T1, Rat brain protein farnesyltransferase (Rattus norvegicus, UniProt Q02293+Q04631) (assay: % inhibition of farnesylation, scintillation proximity assay with biotin-K Ras B fragment). Conditions: Table 6; * footnote 0.1 μM (title: 0.1 mM).
T1 construct: Rat brain protein farnesyltransferase activity is measured; from tissue; host or cells: rat brain
Assay type: biochemical
Procedure, shortened: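 Scintillation proximity read-out of farnesylation, using a biotinylated K Ras B fragment (0.1 mM final) in place of biotin-lamin. Enzyme purified from rat brain; results given as % inhibition.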

T1 sequence (Q02293 whole entry, the tested form may be a part, one chain of several): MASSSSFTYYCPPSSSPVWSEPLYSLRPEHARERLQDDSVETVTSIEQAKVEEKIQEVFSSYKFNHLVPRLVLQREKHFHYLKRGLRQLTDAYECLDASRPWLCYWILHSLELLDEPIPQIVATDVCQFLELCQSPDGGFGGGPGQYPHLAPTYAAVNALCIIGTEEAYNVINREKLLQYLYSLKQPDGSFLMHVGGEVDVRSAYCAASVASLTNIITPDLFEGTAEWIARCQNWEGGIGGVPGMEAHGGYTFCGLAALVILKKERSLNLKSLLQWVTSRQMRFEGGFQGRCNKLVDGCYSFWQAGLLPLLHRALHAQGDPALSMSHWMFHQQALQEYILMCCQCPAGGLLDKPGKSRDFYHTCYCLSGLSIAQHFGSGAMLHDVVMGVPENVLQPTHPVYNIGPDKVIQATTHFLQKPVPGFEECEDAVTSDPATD

% inhibition at 0.1 μM (*) [%]	Compound
83	CCC(=O)N(CCCc1ccc(C(=O)N[C@@H](CCSC)C(=O)O)c(-c2ccccc2C)c1)C1CCCCC1 [Example 1145]
87	CCCCN(CCN1CCCCC1)Cc1ccc(C(=O)N[C@@H](CCSC)C(=O)O)c(-c2ccccc2C)c1 [Example 1196]
69	CCCCC(OCc1ccc(C(=O)N[C@@H](CCSC)C(=O)[O-])c(-c2ccccc2C)c1)C1CCNCC1.[Li+] (stereo partly drawn) [Example 1288]

Same assay, conditions: Table 6; ** footnote 0.01 μM (title: 0.01 mM)

% inhibition at 0.01 μM (**) [%]	Compound
89	COCCN(CCC1CCCCC1)Cc1ccc(C(=O)N[C@@H](CCSC)C(=O)O)c(-c2ccccc2C)c1 [Example 1104]
95	CCSCC(CC1CCCCC1)NCc1cc(-c2ccccc2C)c(C(=O)N[C@@H](CCSC)C(=O)O)cc1F (stereo partly drawn) [Example 1134]

Same assay, conditions: read-out: % inhibition at 0.01 μM (**)

Compound	inhibition at 0.01 µM [%]
CCCCC(OCc1ccc(C(=O)N[C@@H](CCSC)C(=O)O)c(-c2ccccc2C)c1)c1cccc(Cl)c1 (stereo partly drawn) [Example 1206, N-[4-(1-(3-chlorophenyl)pentan-1-yloxymethyl)-2-(2-methylphenyl)benzoyl]methionine lithium salt]	63
CSCC[C@H](NC(=O)c1ccc(COCc2ccnnc2)cc1-c1ccccc1C)C(=O)O [Example 1221, N-[4-(Pyridazin-4-ylmethoxymethyl)-2-(2-methylphenyl)benzoyl]methionine lithium salt]	82
CSCC[C@H](NC(=O)c1ccc(COC(CCC2CCCCC2)c2ccns2)cc1-c1ccccc1C)C(=O)O (stereo partly drawn) [Example 1223, N-[4-(1-(Isothiaz-5-yl)-3-cyclohexylpropan-1-yloxymethyl)-2-(2-methylphenyl)benzoyl]methionine lithium salt]	91

Same assay, conditions: read-out: % inhibition at 0.01 μM (**); Table 6; ** footnote 0.01 μM (title: 0.01 mM)

inhibition at 0.01 µM [%]	Compound
80	CSCC[C@H](NC(=O)c1ccc(COC(CC2CCCCC2)c2scnc2C)cc1-c1ccccc1C)C(=O)O (stereo partly drawn) [Example 1097, N-[4-(1-(4-methylthiazol-5-yl)-2-cyclohexylethoxy)methyl)-2-(2-methylphenyl)benzoyl]methionine lithium salt]
92	CSCC[C@H](NC(=O)c1ccc(COCC2CCCN2C(=O)OCC2CCCCC2)cc1-c1ccccc1C)C(=O)O (stereo partly drawn) [Example 1129, N-[4-(N-cyclohexylmethoxycarbonylpyrrolin-2-ylmethoxymethyl)-2-(2-methylphenyl)benzoyl]methionine Sodium salt]
92	CSCC[C@H](NC(=O)c1ccc(COC(CCC2CCCCC2)c2cnnn2C)cc1-c1ccccc1C)C(=O)O (stereo partly drawn) [Example 1225, N-[4-(1-(1-Methyl-1,2,3-triaz-5-yl)-3-cyclohexylpropan-1-yloxymethyl)-2-(2-methylphenyl)benzoyl]methionine lithium salt]
69	CSCC[C@H](NC(=O)c1ccc(COCc2cc(F)cc(F)c2)cc1-c1ccccc1C)C(=O)O [Example 1226, N-[4-(3,5-trifluorobenzyloxymethyl)-2-(2-methylphenyl)benzoyl]methionine lithium salt]

Same assay, conditions: read-out: % inhibition at 0.1 μM (*)

Compound	inhibition at 0.1 µM [%]
CSCC[C@H](NC(=O)c1ccc(COC(CCC2CCCCC2)c2cccc(Cl)c2)cc1-c1ccccc1C)C(=O)O (stereo partly drawn) [Example 1207, N-[4-(1-(3-chlorophenyl)-3-cyclohexylpropan-1-yloxymethyl)-2-(2-methylphenyl)benzoyl]methionine lithium salt]	91
CCCCC(OCc1ccc(C(=O)N[C@@H](CCSC)C(=O)O)c(-c2ccccc2C)c1)c1cccc(OC)c1 (stereo partly drawn) [Example 1208, N-[4-(1-(3-Methoxyphenyl)pentan-1-yloxymethyl)-2-(2-methylphenyl)benzoyl]methionine lithium salt]	89
CCCOc1cccc(COCc2ccc(C(=O)N[C@@H](CCSC)C(=O)O)c(-c3ccccc3C)c2)c1 [Example 1209, N-[4-(3-(1-Propoxy)benzyloxymethyl)-2-(2-methylphenyl)benzoyl]methionine lithium salt]	87

Same assay, conditions: read-out: % inhibition at 0.1 μM (*); Table 6; * footnote 0.1 μM (title: 0.1 mM)

Compound	inhibition at 0.1 µM [%]
CSCC[C@H](NC(=O)c1ccc(COC(CC2CCCCC2)c2sc(C)nc2C)cc1-c1ccccc1C)C(=O)O (stereo partly drawn) [Example 1096, N-[4-(1-(2,4-dimethylthiazol-5-yl)-2-cyclohexylethoxy)methyl)-2-(2-methylphenyl)benzoyl]methionine lithium salt]	86
CCCCC(OCc1ccc(C(=O)N[C@@H](CCSC)C(=O)O)c(-c2ccccc2C)c1)c1sc(C)nc1C (stereo partly drawn) [Example 1098, N-[4-1-(2,4-dimethylthiazol-5-yl)pentyloxy)methyl-2-(2-methylphenyl)benzoyl]methionine lithium salt]	60
CCCCC(CCC1CCCCC1)OCc1ccc(C(=O)N[C@@H](CCSC)C(=O)O)c(-c2ccccc2C)c1 (stereo partly drawn) [Example 1192, N-[4-(1-Cyclohexylheptan-3-yloxymethyl-2-(2-methylphenyl)benzoyl]methioninelithium salt]	91
CSCC[C@H](NC(=O)c1ccc(COC(CCC2CCCCC2)c2ncnn2C)cc1-c1ccccc1C)C(=O)O (stereo partly drawn) [Example 1224, N-[4-(1-(1-Methyl-1,2,4-triaz-5-yl)-3-cyclohexylpropan-1-yloxymethyl)-2-(2-methylphenyl)benzoyl]methionine lithium salt]	88
CCCCC(OCc1ccc(C(=O)N[C@@H](CCSC)C(=O)O)c(-c2ccccc2C)c1)C1CCOCC1 (stereo partly drawn) [Example 1282, N-[4-(1-(4-tetrahydropyranyl)pentyloxymethyl-2-(2-methylphenyl)benzoyl]methioninelithium salt]	69

The next lines start with the values.

inhibition at 0.1 µM [%]	Compound
86	CSCC[C@H](NC(=O)c1ccc(COCC2CCCN2C(=O)OCc2ccccc2)cc1-c1ccccc1C)C(=O)O (stereo partly drawn) [Example 1128, lithium salt]
96	CSCC[C@H](NC(=O)c1ccc(CCC(=O)OC2CCCCC2)cc1-c1ccccc1C)C(=O)O [Example 1152, N-[4-(cyclohexyloxycarbonylethyl)-2-(2-methylphenyl)benzoyl]methionine]
89	CSCC[C@H](NC(=O)c1ccc(CCC(=O)OCC2CCCCC2)cc1-c1ccccc1C)C(=O)O [Example 1153, N-[4-(cyclohexylmethoxycarbonylethyl)-2-(2-methylphenyl)benzoyl]methionine]
84	CSCC[C@H](NC(=O)c1ccc(COC(c2ccccc2)C2CCN(S(=O)(=O)c3ccccc3)CC2)cc1-c1ccccc1C)C(=O)O (stereo partly drawn) [Example 1252, N-[4-(1-(4-(N-phenylsulfonyl)piperidinyl)benzyloxymethyl-2-(2-methylphenyl)benzoyl]methioninelithium salt]
76	CSCC[C@H](NC(=O)c1ccc(COC(Cc2ccccc2)C2CCN(S(=O)(=O)c3ccccc3)CC2)cc1-c1ccccc1C)C(=O)O (stereo partly drawn) [Example 1253, N-[4-(2-phenyl-1-(4-(N-phenylsulfonyl)piperidinyl)ethyloxymethyl-2-(2-methylphenyl)benzoyl]methioninelithium salt]
89	CSCC[C@H](NC(=O)c1ccc(COCCc2cccc(F)c2)cc1-c1ccccc1C)C(=O)O [Example 1274, N-[4-(2-(3-fluorophenyl)ethyloxymethyl-2-(2-methylphenyl)benzoyl]methioninelithium salt]
74	CSCC[C@H](NC(=O)c1ccc(COC(c2ccccc2)C2CCOCC2)cc1-c1ccccc1C)C(=O)O (stereo partly drawn) [Example 1283, N-[4-(1-(4-tetrahydropyranyl)benzyloxymethyl-2-(2-methylphenyl)benzoyl]methioninelithium salt]
